The compounds below were run against T1, Adenosine receptor A1 (Rattus norvegicus) (UniProt P25099) (assay: Percentage displacement of [3H]DPCPX binding in adenosine A1 receptor of rat brain cortical membrane at a concentration of 10 uM).
T1 sequence (whole entry): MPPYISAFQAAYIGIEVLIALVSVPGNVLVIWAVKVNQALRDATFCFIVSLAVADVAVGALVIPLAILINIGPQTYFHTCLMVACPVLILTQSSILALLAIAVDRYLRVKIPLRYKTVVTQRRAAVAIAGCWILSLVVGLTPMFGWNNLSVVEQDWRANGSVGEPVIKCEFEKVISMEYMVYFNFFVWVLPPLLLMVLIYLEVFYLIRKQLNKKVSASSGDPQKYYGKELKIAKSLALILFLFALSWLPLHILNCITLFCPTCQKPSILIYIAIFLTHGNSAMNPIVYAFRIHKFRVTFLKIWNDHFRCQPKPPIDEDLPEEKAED

| Structure (SMILES) | Displacement |
| --- | --- |
| O=C(Nc1ccccc1)Nc1nc(-c2ccccc2)cs1 | 37% |
| O=C(Nc1nc(-c2ccccn2)nc2ccccc12)c1ccccc1 | 16% |

These compounds were tested against Adenosine receptor A2a (Rattus norvegicus) (UniProt P30543) (assay: Percentage displacement of [3H]-CGS- 21680 binding in adenosine A2A receptor of rat striatal membrane at a concentration of 10 uM).
Adenosine receptor A2a (Rattus norvegicus), sequence (P30543 whole entry): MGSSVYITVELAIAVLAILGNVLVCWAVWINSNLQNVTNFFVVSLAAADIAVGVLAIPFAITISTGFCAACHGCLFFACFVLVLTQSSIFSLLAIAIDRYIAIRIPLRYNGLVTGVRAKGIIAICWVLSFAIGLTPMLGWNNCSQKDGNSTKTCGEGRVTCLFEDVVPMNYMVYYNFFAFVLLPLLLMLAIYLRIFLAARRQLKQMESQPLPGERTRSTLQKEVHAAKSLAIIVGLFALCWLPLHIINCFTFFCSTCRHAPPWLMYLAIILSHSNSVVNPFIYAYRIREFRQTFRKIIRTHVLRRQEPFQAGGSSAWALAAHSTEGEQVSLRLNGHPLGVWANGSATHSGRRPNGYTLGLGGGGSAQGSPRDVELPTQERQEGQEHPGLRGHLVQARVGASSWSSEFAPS

| Structure (SMILES) | Displacement |
| --- | --- |
| COc1ccc(C(=O)Nc2nc(-c3ccccc3)cc3ccccc23)cc1 | 35% |
| COc1ccc(C(=O)Nc2nc(-c3ccccc3)nc3ccccc23)cc1 | 44% |
| O=C(Nc1nc(-c2ccccc2)cc2ccccc12)c1ccccc1 | 0% |
| O=C(Nc1nc(-c2ccccn2)nc2ccccc12)c1ccccc1 | 9% |
| O=C(Nc1nc(-c2ccccn2)cc2ccccc12)c1ccccc1 | 0% |

The compounds below were run against Adenosine receptor A2a (Rattus norvegicus) (UniProt P30543) (assay: Displacement of [3H]CGS-21680 or [3H]ZM-241,385 binding in adenosine A2A receptor of rat striatal membrane at 10 uM).

| Structure (SMILES) | Displacement |
| --- | --- |
| O=C(Nc1nc(-c2ccccn2)cs1)c1ccc([N+](=O)[O-])cc1 | 29% |
| O=C(Nc1nc(-c2ccccc2)ns1)C1CCC(O)CC1 (stereo in doubt; 8n) [listing 1 of 2 here] | 41% |
| Cc1ccc(C(=O)Nc2nc(-c3ccccc3)ns2)cc1 | 38.2% |
| O=C(Nc1nc(-c2ccccc2)ns1)C1CCC(O)CC1 (stereo in doubt) [listing 1 of 2 here] | 37% |
| Cc1ccc(C(=O)Nc2nc(-c3ccccn3)cs2)cc1 | 44% |
| O=C(Nc1nc(-c2ccccn2)cs1)c1ccc(Cl)c(Cl)c1 | 20% |
| O=C(Nc1nc(-c2ccccc2)ns1)C1CCCCC1 | 16% |
| O=C(Nc1ccccc1)Nc1nc(-c2ccccc2)ns1 | 48% |
| O=C(Nc1nc(-c2ccccn2)cs1)c1ccc(Cl)cc1 | 30% |
| O=C(Nc1nc(-c2ccccc2)ns1)c1ccc(Cl)cc1 | 36% |
| COc1ccc(C(=O)Nc2cc(-c3ccccc3)ncn2)cc1 | 31% |
| COc1ccc(C(=O)Nc2nc(-c3ccccn3)cs2)cc1 | 40% |
| CC(C)Oc1ccc(C(=O)Nc2nc(-c3ccccn3)cs2)cc1 | 44% |
| O=C(Nc1nc(-c2ccccn2)cs1)c1ccc(I)cc1 | 50% |

Each compound was assayed against Adenosine receptor A2a (Rattus norvegicus) (UniProt P30543) (assay: Displacement of [3H]ZM-241385 binding in adenosine A2A receptor of rat striatal membrane at a concentration of 10 uM).

| Structure (SMILES) | Displacement |
| --- | --- |
| O=C(Nc1ccccc1)Nc1nc(-c2ccccc2)cs1 | 19% |

Each compound was assayed against T2, Adenosine receptor A3 (Homo sapiens, UniProt P0DMS8) (assay: Displacement of [125I]AB-MECA from human adenosine A3 receptor expressed in HEK 293 cells).
T2 sequence (P0DMS8 whole entry): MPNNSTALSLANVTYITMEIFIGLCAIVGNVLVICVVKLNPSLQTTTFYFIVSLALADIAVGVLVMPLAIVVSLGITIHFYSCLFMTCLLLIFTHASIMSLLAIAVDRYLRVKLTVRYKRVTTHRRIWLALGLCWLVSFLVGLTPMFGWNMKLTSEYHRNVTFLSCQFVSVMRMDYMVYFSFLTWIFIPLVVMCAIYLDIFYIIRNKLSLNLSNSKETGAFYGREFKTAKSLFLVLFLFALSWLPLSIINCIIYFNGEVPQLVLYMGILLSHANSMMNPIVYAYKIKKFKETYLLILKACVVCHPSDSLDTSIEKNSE
Assay type: cell-based, HEK293

| Structure (SMILES) | Ki |
| --- | --- |
| COc1ccc(C(=O)Nc2nc(-c3ccccc3)cc3ccccc23)cc1 | 79 nM |
| Cc1ccc(C(=O)Nc2nc(-c3ccccc3)ns2)cc1 | 140 nM |
| Cc1ccc(C(=O)Nc2nc(-c3ccccn3)cs2)cc1 | 3200 nM |
| O=C(Nc1nc(-c2ccccn2)cs1)c1ccc(Cl)c(Cl)c1 | 2500 nM |
| O=C(Nc1nc(-c2ccccc2)ns1)C1CCCCC1 | 16000 nM |
| Nc1nc2ccc(Cl)cc2c2nc(-c3ccco3)nn12 [CGS-15943] | 140 nM |
| O=C(Nc1ccccc1)Nc1nc(-c2ccccc2)ns1 | 4000 nM |
| O=C(Nc1nc(-c2ccccc2)ns1)C1CCC(O)CC1 (stereo in doubt) [listing 2 of 2 here] | 1900 nM |
| O=C(Nc1ccccc1)Nc1nc(-c2ccccc2)cs1 | 9900 nM |
| COC(=O)C1=C2C=CN(C)C=C2c2nc(-c3ccccc3)nn2C1 | 170 nM |
| O=C(Nc1nc(-c2ccccc2)ns1)C1CCC(O)CC1 (stereo in doubt; 8n) [listing 2 of 2 here] | 2700 nM |
| O=C(Nc1nc(-c2ccccc2)ns1)c1ccc(Cl)cc1 | 520 nM |
| COc1ccc(C(=O)Nc2cc(-c3ccccc3)ncn2)cc1 | 800 nM |
| COc1ccc(C(=O)Nc2nc(-c3ccccc3)nc3ccccc23)cc1 | 27 nM |
| O=C(Nc1nc(-c2ccccc2)cc2ccccc12)c1ccccc1 | 1200 nM |
| COc1ccc(C(=O)Nc2nc(-c3ccccn3)cs2)cc1 | 1800 nM |
| CC(C)Oc1ccc(C(=O)Nc2nc(-c3ccccn3)cs2)cc1 | 3700 nM |

The compounds below were run against T3, Adenosine receptor A1 (Rattus norvegicus, UniProt P25099).
T3 sequence (P25099 whole entry): T1 sequence (whole entry)
Description: Displacement of [3H]DPCPX binding to adenosine A1 receptor of rat brain cortical membrane

| Structure (SMILES) | Ki |
| --- | --- |
| COc1ccc(C(=O)Nc2nc(-c3ccccc3)cc3ccccc23)cc1 | 3000 nM |
| Cc1ccc(C(=O)Nc2nc(-c3ccccc3)ns2)cc1 | 30 nM |
| Cc1ccc(C(=O)Nc2nc(-c3ccccn3)cs2)cc1 | 1600 nM |
| O=C(Nc1nc(-c2ccccn2)cs1)c1ccc(Cl)c(Cl)c1 | 1600 nM |
| O=C(Nc1nc(-c2ccccc2)ns1)C1CCCCC1 | 1400 nM |
| O=C(Nc1ccccc1)Nc1nc(-c2ccccc2)ns1 | 1000 nM |
| O=C(Nc1nc(-c2ccccc2)ns1)C1CCC(O)CC1 (stereo in doubt) [listing 2 of 2 here] | 20 nM |
| O=C(Nc1nc(-c2ccccc2)ns1)C1CCC(O)CC1 (stereo in doubt; 8n) [listing 2 of 2 here] | 42 nM |
| O=C(Nc1nc(-c2ccccc2)ns1)c1ccc(Cl)cc1 | 41 nM |
| COc1ccc(C(=O)Nc2nc(-c3ccccc3)nc3ccccc23)cc1 | 1800 nM |
| O=C(Nc1nc(-c2ccccc2)cc2ccccc12)c1ccccc1 | 1200 nM |
| COc1ccc(C(=O)Nc2nc(-c3ccccn3)cs2)cc1 | 3200 nM |
| CC(C)Oc1ccc(C(=O)Nc2nc(-c3ccccn3)cs2)cc1 | 5800 nM |

From ChEMBL document CHEMBL1134360, “Thiazole and thiadiazole analogues as a novel class of adenosine receptor antagonists” (J Med Chem, 2001)
